Six substances from patent publication US11987645B2, “Peptide for treating rheumatoid arthritis and use thereof” (SEOUL NATIONAL UNIVERSITY R&DB FOUNDATION, priority 2018, dated 2024) can be followed below.

The subject of test [1] is peripheral blood mononuclear cells obtained from rheumatoid arthritis patients. Kind of test: Inflammatory cytokine secretion after treating peripheral blood mononuclear cells of rheumatoid arthritis patients with apoB100-derived peptides #1 to #5. In kind it is cell-based, human. Conditions: PBMC of rheumatoid arthritis patients; control non-binding peptide (NBP); FIG. 8. On the procedure:
Thereafter, peripheral blood mononuclear cells obtained from the healthy control and rheumatoid arthritis patients were treated with the peptides #1 to #5 (which are named apoB100 #1, apo100 #2, apoB100 #3, apoB100 #4, and apoB100 #5, respectively), and changes in the secretion of IL-1β, IL-6 and TNF-α were compared. Meanwhile, a non-binding peptide treated group (NBP) was determined as the control group, and the results of this example are indicated as the mean values of the secretion levels for each six of rheumatoid arthritis patients and healthy individuals.

For test [2], the system named is peripheral blood cells derived from rheumatoid arthritis patients. Kind of test: Example 3-1: inflammatory cytokine secretion in peripheral blood cells derived from rheumatoid arthritis patients. Conditions: FIG. 10; for secretion level of IL-1β / secretion level of IL-6 / secretion level of TNF-α: peripheral blood cells of rheumatoid arthritis patients, control NBP. In kind it is cell-based, human. The protocol: After peripheral blood cells derived from rheumatoid arthritis patients were treated with apoB100 #1, apoB100 #3, and apoB100 #5, changes in the secretion of IL-1β, IL-6 and TNF-α were identified. A non-binding peptide treated group (NBP) was determined as the control group.

Test [3] concerns K/B×N rheumatoid arthritis animal model. Kind of test: Example 3-2: K/B×N rheumatoid arthritis animal model (K/B×N serum transfer arthritis mouse). Conditions: subcutaneous injection to the affected region; K/B×N serum and apoB induced; FIG. 11. In kind it is in vivo. An excerpt:
K/B×N rheumatoid arthritis animal model (K/B×N serum transfer arthritis mouse) was established by inducing moderate rheumatoid arthritis by administering K/B×N serum and apoB to the mouse, and peptides for inhibiting the secretion of inflammatory cytokine were subcutaneously injected to the affected region of the animal model. Afterwards, changes in the ankle thickness and arthritis score resulting after peptide injection were identified. In addition, under the same conditions as described above, changes in the synovial inflammation, bone erosion, cartilage damage and leukocyte infiltration were compared. Meanwhile, groups treated with K/B×N serum and apoB only were determined as control groups, and groups treated with K/B×N serum and apoB, and a non-binding peptide treated group (NBP) were determined as comparison groups.

The subject of test [4] is peripheral blood mononuclear cells isolated from rheumatoid arthritis patients. In words: Inflammatory cytokine secretion after treating peripheral blood mononuclear cells of rheumatoid arthritis patients with apoB100. In kind it is cell-based, human. An excerpt: In this example, in order to identify the relation between rheumatoid arthritis and ENO1 expression on peripheral blood mononuclear cells, the ENO1 expression thereof was observed. In addition, it was attempted to identify the effect of binding ENO1 (α-enolase) to apolipoprotein B100 (apoB100) isolated from a rheumatoid arthritis patient and selected as an ENO1 (α-enolase) binding ligand on the secretion of inflammatory cytokine in the peripheral blood of the rheumatoid arthritis patient through proteomic analysis using immunoprecipitation (IP)/mass spectroscopy (MS). In detail, after ENO1 immunoblotting was performed on mononuclear cells obtained from the rheumatoid arthritis patient and peripheral blood mononuclear cells were treated with apoB100, changes in the secretion of IL-1β, IL-6 and TNF-α were compared. Meanwhile, a group in which cells isolated from healthy individuals are used (HC: healthy control) was determined as the control group.
Accordingly, in this example, it was additionally verified whether the binding of ENO1 and apoB100 crucially affected inflammation responses due to rheumatoid arthritis. […] In addition, since LDL existing in vivo in a state in which it binds to apoB100 protein may potentially involve the inflammation responses, LDLR knockout mouse and C57BL/6 wild-type mouse control group were treated with the serum of K/B×N mouse (referred to as K/B×N serum, hereinafter) and ApoB100, and resulting changes in vivo were compared. Meanwhile, addition of K/B×N mouse serum functions to induce rheumatoid arthritis through deposition of autoantibodies existing in the K/B×N serum, and is one of conventional techniques for manufacturing rheumatoid arthritis animal models by autoimmune responses.

The next test concerns the target ENO1 (α-enolase) (Homo sapiens, UniProt P06733). In words: ENO1-apoB100 binding by immunoblotting, confocal microscopy, BIACORE system and ELISA assay. Conditions: ELISA, FIG. 3. In general terms: In western blotting, separated proteins are transferred to a membrane and probed.
[5] abbreviates: RA patient mononuclear cells treated with apoB100, compared to healthy control group, FIG. 2.

Sequence of ENO1 (α-enolase) (P06733 whole entry): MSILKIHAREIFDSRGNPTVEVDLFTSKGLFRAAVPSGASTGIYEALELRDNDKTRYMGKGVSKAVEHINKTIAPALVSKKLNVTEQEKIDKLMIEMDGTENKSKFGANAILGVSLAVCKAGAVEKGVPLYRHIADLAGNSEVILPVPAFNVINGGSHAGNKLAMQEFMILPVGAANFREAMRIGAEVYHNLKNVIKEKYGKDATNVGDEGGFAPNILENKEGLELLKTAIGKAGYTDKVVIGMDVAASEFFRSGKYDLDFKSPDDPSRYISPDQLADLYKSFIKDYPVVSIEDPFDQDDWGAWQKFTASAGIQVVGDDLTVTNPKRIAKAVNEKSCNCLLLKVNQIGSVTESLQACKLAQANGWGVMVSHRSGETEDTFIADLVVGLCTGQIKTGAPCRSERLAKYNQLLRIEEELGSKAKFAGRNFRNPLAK

For TKKMGLAFESTK (peptide #5) [apoB100 #5], in test [1], the “secretion level of IL-1β” value is on record as “decreased”, the “secretion level of IL-6” value is “decreased” and the “secretion level of TNF-α” value is “decreased”. Besides, in test [2], the “secretion level of IL-1β” value was “significantly decreased”, the “secretion level of IL-6” value is “significantly decreased” and the “secretion level of TNF-α” value is “significantly decreased”. Besides, in test [3], the ankle thickness result is recorded as “significantly decreased” and the arthritis score result is “significantly decreased”.

In the case of apolipoprotein B100 [apoB100], in test [4] (ENO1 expression of PBMC inhibited with ENO1 siRNA, then apoB100 treatment, FIG. 4), the “secretion level of inflammatory cytokines” value is “an increased secretion level of inflammatory cytokines was not observed”. In test [4] (setting [5]), the “secretion level of IL-1β” value is “markedly increased”, the “secretion level of IL-6” value is “markedly increased” and the “secretion level of TNF-α” value was “markedly increased”. Besides, the ENO1-apoB100 binding entry with ENO1 (α-enolase) was “relatively strong binding”.

For KNKYGMVAQVTQ (peptide #4) [apoB100 #4], in test [1], the “secretion level of IL-1β” value is “markedly increased”, the “secretion level of IL-6” value is reported as “markedly increased” and the “secretion level of TNF-α” value was “markedly increased”.

Turning to AICKEQHLFLPF (peptide #1) [apoB100 #1], in test [1], the “secretion level of IL-1β” value was “decreased”, the “secretion level of IL-6” value was “decreased” and the “secretion level of TNF-α” value is on record as “decreased”. In test [2], the “secretion level of IL-1β” value is reported as “significantly decreased”, the “secretion level of IL-6” value was “significantly decreased” and the “secretion level of TNF-α” value is “significantly decreased”. Besides, in test [3], the ankle thickness entry is “significantly decreased” and the arthritis score result is reported as “significantly decreased”.

As for CKEQHLFLPFSY (peptide #2) [apoB100 #2], in test [1], the “secretion level of IL-1β” value was “markedly increased”, the “secretion level of IL-6” value is recorded as “markedly increased” and the “secretion level of TNF-α” value is “markedly increased”.

With SYKNKYGMVAQV (peptide #3) [apoB100 #3], in test [1], the “secretion level of IL-1β” value is “decreased”, the “secretion level of IL-6” value is on record as “decreased” and the “secretion level of TNF-α” value is reported as “decreased”. Further, the “treatment efficacy (decrease of cytokine secretion) compared among the peptides” value in test [2] (among apoB100 #1, #3 and #5) is listed as “highest”. In test [2], the “secretion level of IL-1β” value is reported as “significantly decreased”, the “secretion level of IL-6” value is reported as “significantly decreased” and the “secretion level of TNF-α” value was “significantly decreased”. In test [3], the ankle thickness result is listed as “significantly decreased” and the arthritis score result is given as “significantly decreased”.
